Data from patent publication US6894079B1, “Method for reducing free-radical induced injury” (priority 1998, dated 2005).

Key:
[1] = AAPH peroxyl-radical oxidation of linoleic acid/SDS micelles, malondialdehyde formation; details: 2, 4, 20 and 50 mM AAPH; 5 ml emulsion plus 5 ml perflubron, room temperature (FIGS. 4A-D)
Description: This embodiment illustrates the effect of perfluorocarbon on fatty acid oxidation in a non-biological system (fatty acid micelles). Linoleic acid micelles were prepared as follows: Linoleic acid (3 mM) was emulsified into phosphate buffered saline (PBS) using the detergent sodium dodecyl sulfate (SDS, 250 μM). Linoleic acid/SDS micelles in PBS were formed by agitation and sonication of the resulting emulsion. The emulsion (5 ml) was exposed to perfluorocarbon by the addition of perflubron (PFOB, 5 ml, available commercially) to the system. Emulsions not exposed to perflubron served as controls. The emulsion/PFOB system (PFOB exposed micelles) and the non-exposed micelles (control) were agitated (xyz axial shaker) at room temperature. […] The degree of oxidative injury to the linoleic acid/SDS micelles was assessed by measuring malondialdehyde concentrations in aliquots taken from the emulsion phase at different time intervals. […] Malondialdehyde was measured using the method of Esterbauer and Cheeseman (Meth. Enzymol. 1990; 186:407-421). […] Absorbance changes were measured using a spectrophotometer (Beckman DU 650, Beckman Instruments) at 586 nm, against standard curves of 1,1,3,3-tetramethoxypropane at the end of the incubation period. […]

[2] = tested on: Rat pulmonary artery endothelial cells (RPAECs); assay: H2O2 oxidative stress to endothelial cell monolayers, DCFDA fluorescence (confocal imaging); type: cell-based
Description: Rat pulmonary artery endothelial cells (RPAECs) were grown to confluence on optical grade culture dishes using standard technique. Cells were grown in Dulbecco's Modified Eagles Medium (high glucose) containing […], 0.8 M NaOH 10% serum (calf serum). Cells were incubated at 37° C. in 5% CO2, 95% relative humidity.
An oxidative stress indicator, dichlorofluorescein diacetate (DCFDA), was used to indicate the extent of injury to cells. DCFDA is a colorless substance that permeates through the cell membrane. Fresh DCFDA (5 uM) was prepared by solubilizing 2.4 mg DCFDA in 300 ul DMSO, then diluting the solution in […] Phosphate buffered saline (PBS), pH 7.4. […] Upon excitation by contact with free radicals, the dye DCFDA becomes fluorescent and the intensity of fluorescence is directly proportional to the degree of oxidative stress suffered by the cells. […]
Oxidative stress was initiated by the addition of the buffer containing 10 mM H2O2 in PBS to the cell monolayers. Oxidative stress to cells was measured by sequential imaging with a confocal laser microscope obtained at baseline and every 10 seconds for 120 seconds. The excitation filter was wet at 488 nm and the images were read at 515 nm. […]
Relative fluorescence of cell monolayers exposed to perflubron (open circles) and standard buffer (closed circles) are shown in FIG. 1. […] Data are expressed as mean+standard error of the mean. […]

FC(F)(F)C(F)(F)C(F)(F)C(F)(F)C(F)(F)C(F)(F)C(F)(F)C(F)(F)Br [PFOB, perfluorooctyl bromide]
oxidative damage to fatty acid micelles (malondialdehyde concentration) [1]: attenuates oxidative damage to fatty acid micelles
oxidative injury to cell monolayers ([2]; 10 mM H2O2 in PBS, imaging every 10 seconds for 120 seconds, perflubron removed by aspiration or evaporation (FIGS. 1, 2 and 3)): attenuates oxidative injury to cell monolayers
DCFDA fluorescence (indicator of free radicals) in cell cultures ([2]; after 120 seconds of oxidative stress with 10 mM H2O2, cells pre-exposed 1 minute to 1 ml PFOB, then removed (C120, FIG. 2 and 3)): lack of fluorescence
